Assay [1] deals with HIV. Nature of the assay: Testing of preparations against HIV in a cell culture (T-Cell culture assay). In kind it is cell-based. To be noted: Human immunodeficiency virus 1, 72 h; HIV-infected lymphocytes, 37° C. for 3 days; lowest concentration at which no giant cells occurred; read-out: T-Cell culture assay Minimum inhibitory concentration. The method, then: Testing of preparations against HIV in a cell culture
Description of the method
The complete medium additionally contains 20% of fetal calf serum and 40 IU/ml of recombinant interleukin 2. Cells:
Lymphocytes isolated from fresh donor blood by means of Ficol® gradient centrifugation are cultured, with addition of […] of phytohemagglutinin (Wellcome) in the complete medium at 37° C. under 5% of CO2 for 36 hours. After addition of 10% of dimethyl sulfoxide, the cells are frozen at a cell density of 5×10^6 and stored in liquid nitrogen. For the experiment, the cells are thawed, washed in RPMI medium and cultured in the complete medium for 3-4 days.
The test preparations were dissolved in dimethyl sulfoxide in a concentration of 16.7 mg/ml and diluted to 1 mg/ml in complete medium.
0.4 ml of medium was initially introduced into 24-well multiwell dishes. After addition of 0.1 ml of the dissolved preparation into the upper row of the dish, a geometric dilution series was produced by transferring in each case 0.1 ml. Preparation-free controls always contained 0.4 ml of complete medium with 0.5% of dimethyl sulfoxide.
Lymphocyte cultures having a cell count of 5×10^5 cells/ml were infected by addition of 1/50 of the volume of supernatant from HIV-infected lymphocyte cultures. The titer of these culture supernatants was determined by end point dilution with 1-5×10^6 infectious units/ml. After incubation at 37° C. for 30 minutes, the infected lymphocytes were centrifuged off and taken up again in the same volume of medium. In each case 0.6 ml of this cell suspension was introduced into each of the depression walls of the test plate. The batches were incubated at 37° C. for 3 days.
The infected cell cultures were examined under the microscope for the presence of giant cells, which indicate active multiplication of the virus in the culture. The lowest concentration of preparation at which no giant cells occurred was determined as the inhibitory concentration against HIV. As a control, the supernatants from the culture plates were investigated for the presence of the HIV antigen with the aid of an HIV antigen test in accordance with the manufacturer's information (Organon).

Assay [2] deals with T1, HIV "Reverse Transcriptase" (Human immunodeficiency virus type 1 group M subtype B, UniProt P04585).
T1 construct: purchased HT-Biotechnology Ltd., Cambridge, UK; host or cells: E. coli
Kind of assay: Inhibition of HIV "Reverse Transcriptase" (Scintillation Proximity Assay). Format: biochemical. To be noted: RT-SPA, RT from HIV cloned in E. coli, 60 minutes (37° C.). Here is the method: Investigation of the substances for inhibition of HIV "Reverse Transcriptase"
The activity of reverse transcriptase (RT) was determined with the aid of a "Scintillation Proximity Assay" (SPA). The reagent kit for the RT-SPA was obtained from Amersham/Buchler (Braunschweig). The enzyme RT (from HIV cloned in E. coli) originated from HT-Biotechnology Ltd., Cambridge, UK.
The test was carried out in accordance with the method manual of the manufacturer Amersham--with the following modifications:
bovine serum albumin was added to the "assay" buffer to the final concentration of 0.5 mg/ml.
the test was carried out in Eppendorf reaction vessels with a batch volume of […].
the RT concentrate of the manufacturer (5000 U/ml) was diluted to an activity of 15 U/ml in tris-HCl buffer 20 mM; pH 7.2; 30% of glycerol.
the incubation time for the batches was 60 minutes (37° C.).
after the reaction had been stopped and after "development" with the bead suspension, […] of the batch were transferred to 4.5 ml of tris-HCl buffer, 10 mM; pH 7.4; 0.15M NaCl, and the tritium activity was measured in a β-counter.
Testing of the substances:
For a preliminary test of the inhibitor activity, the substances were dissolved in dimethyl sulfoxide (stock solution c=1 mg/ml) and tested in a dilution in dimethyl sulfoxide of 10^-1, 10^-2, 10^-3 and the like to determine IC50 values, the inhibitor stock solutions were further diluted in tris-HCl buffer, 50 mM, pH 8 and tested in suitable concentrations. The concentration associated with 50% enzyme inhibition was determined from the graph of RT activity against Log Cinh.
Background: Scintillation proximity formats need no separation of bound from free tracer.

Converted amounts (≈) assume the structure as drawn.

In the case of `CC(C)ON=C1c2cc(Cl)ccc2NC(=S)C1(C)C` [Example 7, anti-6-Chloro-3,3-dimethyl-4-(isopropyloxyimino)-l,3-dihydroquinoline-2-thione], the MIC in assay [1] stood at 0.008 µg/mL (≈ 0.027 µM). In addition, in assay [2], half-maximal inhibition (IC50) was put at 20.2 nM.

For the molecule `CCON=C1c2cc(Cc3ccncc3)ccc2NC(=O)C1(C)C` [Example 103], the MIC in assay [1] was 0.04 µg/mL (≈ 0.124 µM). Moreover, the half-maximal inhibitory concentration (IC50) in assay [2] was 30.9 to 309 nM.

As for `CCON=C1c2cc(Cl)ccc2NC(=O)C1(C)C` [Example 2, anti-6-Chloro-3,3-dimethyl-4-(ethyloxyimino)-1,3-dihydroquinolin-2-one], in assay [1], the MIC is 0.2 µg/mL (≈ 0.75 µM). The molecule also showed an IC50 in assay [2] of 82.5 nM.

The term IC50 denotes the concentration at which inhibition is half-maximal. A lower IC50 goes with greater potency.

Values taken from patent US5602146A, “4-iminoquinolines, processes for their preparation, and their use” (Hoechst Aktiengesellschaft, priority 1992, dated 1997).
